According to article PMC7144376, “Antiviral Effects of Novel 2-Benzoxyl-Phenylpyridine Derivatives” (Molecules, 2020):
Where two headings read alike, the source gives them in different places.

What was measured:
CVB3 [1] = experiment: Direct inactivation of virions (viricidal test); type: cell-based, Coxsackievirus B3; conditions: 10^4 TCID50 CVB3, 2 h at 37 °C; 120 μM W-9, 160 μM W-13, W-15, ribavirin
Experimental: To determine whether these 2-benzoxyl-phenylpyridine derivatives inactivated virions directly, 10^4 TCID50 of CVB3 suspension was incubated with 120 μM W-9, 160 μM W-13, 160 μM W-15, or 160 μM ribavirin for 2 h at 37 °C. Subsequently, viral titers were measured by inoculating 100-fold dilutions of the mixtures, beyond the effective concentrations of the compounds, into the host cells. TCID50 values were calculated by the Reed–Muench method on day 2 post-inoculation.

[2] = Cytotoxicity on uninfected HeLa cells (MTT, 48 h); type: cell-based; conditions: human, read-out: CC50 (reduce cell viability by 50%), ADV7 host cells
Experimental: Human laryngeal carcinoma cells (Hep-2) and human cervical carcinoma cells (HeLa) were maintained in DMEM (Gibco) supplemented with 10% fetal bovine serum (FBS; Gibco), 100 U/mL penicillin and streptomycin, and 2 mM L-glutamine.
(§1) The antiviral activities of compounds against CVB3 and ADV7 were determined by measuring their inhibition of virus-induced CPEs in acutely infected Hep-2 and HeLa cells, respectively. Confluent cell monolayers in 96-well plates were infected with 100 TCID50 of CVB3 or ADV7 for 1.5 h at 37 °C, inocula were aspirated, and the cells then were incubated with various concentrations of compounds at 37 °C, 5% CO2, for 48 h. CPEs were observed by microscopy and the viability of cells was determined using MTT assays. The concentrations of test compounds required to achieve 50% protection from virus-induced cytopathogenicity (EC50 values) were determined. Adverse effects of tested compounds on host cells were also assessed using the MTT method after exposing uninfected cells to various concentrations of test compounds for 48 h at 37 °C. The CC50 values of compounds were calculated using SPSS software and selectivity indices were the ratio of CC50:EC50. Each experiment was performed in triplicate and at least three times, independently.

CVB3 [3] = experiment: Time of (drug) addition experiment; type: cell-based, Coxsackievirus B3; conditions: compound present −1–10, 0–10 or 2–10 h; yield at 12 h pi; 120 μM W-9, 160 μM W-13, W-15, ribavirin
Experimental: To further elucidate the mechanisms underlying the activities of W9, W13, and W15 against CVB3 propagation in cells, we conducted a time-of-addition experiment. Briefly, 120 μM W-9, or 160 μM W-13, W-15 or ribavirin, were added to Hep-2 cells at different time periods following CVB3 infection and progeny virus yield was determined at 12 h post-infection (pi). […] In contrast, when compounds were added during the 4–10 h stage after viral infection, production of viral progeny increased somewhat, however, compared with the virus control group, the inhibition effect was still clear. Drug treatments during other periods following CVB3 infection led to a gradual increase in viral yields, reflecting a loss of antiviral effects.
Figure 4 Time-of-addition assay. 120 μM W-9, or 160 μM W-13, W-15, or ribavirin, were added to Hep-2 cells for different time periods after CVB3 infection. Progeny virus yield was determined at 12 h post-infection ((−1)–0 h, viral infection period; 0–10 h, period of virus proliferation in cells). Values are presented as means ± SDs. * p < 0.05; ** p < 0.01, compared with the virus control group.
Hep-2 cells were infected with 100 TCID50 of CVB3 and then 120 μM W-9, 160 μM W-13, 160 μM W-15, or 160 μM ribavirin were added for different time periods (−1–0, 0–10, 2–10, 4–10, 6–10, 8–10, or −1–10 h pi, where –1–0 h is the viral infection period and 0–10 h is the period of virus proliferation in the cells). Cells and culture supernatants were harvested at 12 h pi and subjected to three freeze-thaw cycles, after which virus titers were determined by the Reed–Muench method.

CVB3 [4] = experiment: Viral release analysis; type: cell-based, Coxsackievirus B3; conditions: Hep-2 cells, 12 h; intra- and extracellular titers; 120 μM W-9, 160 μM W-13, W-15, ribavirin
Experimental: Figure 3 Analysis of the modes of action of W9, W13, and W15 against CVB3. (a) Analysis of effective stage. The antiviral effects of test compounds against CVB3 were detected by measuring cell viability after 48 h of infection when cells were treated with W9, W13, or W15 before, simultaneously, or after inoculation with CVB3 (100 TCID50). (b) Analysis of the effects on CVB3 adsorption. Mock-, 120 μM W-9-, 160 μM W-13-, 160 μM W-15-, or 160 μM ribavirin-treated CVB3 (10^6 TCID50) was inoculated onto Hep-2 cells and adsorbed for 2 h. Infected cells were then harvested and subjected to virus titration, using the TCID50 method. (c) The effects of test compounds on CVB3 release from Hep-2 cells. Hep-2 cells infected with 100 TCID50 of CVB3 were incubated with test compounds for 12 h, then cells and culture supernatants (intra- and extracellular) analyzed for virus yield, separately or together. Mock, no infection; VC, virus control. Values represent the means ± SDs of three independent experiments. * p < 0.05; ** p < 0.01, compared with the virus control group.
The viral life cycle is completed by release of progeny for further infection of neighboring cells. Therefore, we tested whether viral release from cells is affected by W9, W13, and W15. Hep-2 cells infected with 100 TCID50 of CVB3 were incubated with test compounds for 12 h, then both cells and supernatants (intra- and extracellular), or one of which was harvested separately, and virus yields were determined. Ribavirin was used as the positive control.
Hep-2 cells were treated with or without 120 μM W-9, 160 μM W-13, 160 μM W-15, or 160 μM ribavirin after infection with 100 TCID50 of CVB3. Supernatants and cells were harvested together or separately for the determination of progeny virus yields at 12 h pi by the Reed–Muench method.

CVB3 [5] = experiment: Inhibition of CVB3-induced cytopathic effects in Hep-2 cells (MTT); type: cell-based, Coxsackievirus B3; conditions: for EC50 / inhibition at 160 µM: Enterovirus B; for EC50: 100 TCID50 CVB3, 48 h, MTT, read-out: EC50 (50% protection from virus-induced cytopathogenicity), CVB3; for protection against CVB3-induced CPEs (microscopy): 120 μM W-9, 160 μM W-13, 160 μM W-15; for inhibition at 160 µM: CVB3, at 160 μM, read-out: inhibition of CVB3 infections
Experimental: (§2) Figure 1 Antiviral activities of novel 2-benzoxyl-phenylpyridine derivatives against CVB3 and ADV7. […] Hep-2 or HeLa cells were infected with 100 TCID50 of CVB3 or ADV7 for 1.5 h at 37 °C. Then, the inocula were aspirated and the cells were incubated with various concentrations of test compounds for 48 h. Cell viability was determined using the MTT assay. (b) Images showing the morphology of Hep-2 and HeLa cells treated with 120 μM W-9, 160 μM W-13, or 160 μM W-15 (magnification, 20×).
as §1

ADV7 = experiment: Inhibition of ADV7-induced cytopathic effects in HeLa cells (MTT); type: cell-based, adenovirus type 7; conditions: for EC50 / inhibition at 160 µM: Human mastadenovirus B; for EC50: 100 TCID50 ADV7, 48 h, MTT, read-out: EC50 (50% protection from virus-induced cytopathogenicity), ADV7; for protection against ADV7-induced CPEs (microscopy): 120 μM W-9, 160 μM W-13, 160 μM W-15; for inhibition at 160 µM: read-out: inhibition of ADV7 infections
Experimental: as §2, §1

Row | SMILES | virus titer after incubating CVB3 suspension with compound (viricidal activity) (CVB3 [1]) | CC50 at 48 h [2] | progeny virus titer in time-of-addition assay (CVB3 [3]) | effect on CVB3 release from cells (CVB3 [4]) | SI (CC50/EC50), CVB3 (CVB3 [5]) | maximum inhibition of CVB3 (CVB3 [5]) | EC50 (CVB3 [5]) | SI (CC50/EC50), ADV7 (ADV7) | maximum inhibition of ADV7 (ADV7) | EC50 (ADV7) | inhibitory activity against CVB3 infection (in words) (CVB3 [5]) | protection against CVB3-induced CPEs (microscopy) (CVB3 [5]) | inhibition at 160 µM (CVB3 [5]) | inhibitory activity against ADV7 infection (in words) (ADV7) | protection against ADV7-induced CPEs (microscopy) (ADV7) | inhibition at 160 µM (ADV7) | SI (CC50/EC50), ADV7 (ADV7; listed as W-13)
1 | NC(=O)c1ncn([C@@H]2O[C@H](CO)[C@@H](O)[C@H]2O)n1 [Ribavirin, reference compound] | No significant difference | 807 µM | very similar effects | do not act on viral release from cells | 8.3 | 63.0% | 101 µM | 7.1 | 72.4% | 114 µM |  |  |  |  |  |  | 
2 | O=C(Oc1cc(Cl)ccc1-c1ccccn1)c1ccccc1 [W9] | No significant difference | 265 ± 28.1 µM | progeny virus titers were reduced | do not act on viral release from cells | 6.0 |  | 24.6 ± 8.7 µM | 9.8 |  | 27.1 ± 9 µM | significant inhibitory activities | almost complete protection | 73% | significant inhibitory activities | almost complete protection | 81.4% | 
3 | Cc1ccc(OC(=O)C(C)(C)C)c(-c2ccccn2)c1 [W13] | No significant difference | > 372 µM | progeny virus titers were reduced | do not act on viral release from cells | 10.2 |  | 41.6 ± 11.5 µM | >10 |  | 36.4 ± 16.4 µM | significant inhibitory activities | almost complete protection | 92.8% | significant inhibitory activities | almost complete protection | 83.9% | > 10
4 | CC(=O)Oc1ccc(-c2ccccn2)c(OC(=O)c2ccccc2)c1 [W15] | No significant difference | 795 ± 33.8 µM | progeny virus titers were reduced | do not act on viral release from cells | 6.5 |  | 69.7 ± 15 µM | 12.2 |  | 65.2 ± 21.6 µM | significant inhibitory activities | almost complete protection | 90% | significant inhibitory activities | almost complete protection | 89.4% | 
